{"source": "patent US20200345746A1", "about": "“Oxazine Derivative for Use in the Prevention of Alzheimer's Disease in at Risk Patents” (Novartis AG, priority 2016, published 2020)", "assay": "Drug-drug interaction study: PK of Compound 1 with the strong CYP3A4 inhibitor itraconazole", "type": "in vivo, human", "details": "healthy volunteers, with itraconazole 200 mg q.d. vs Compound 1 alone"}
{"smiles": "C[C@@]1(c2nc(NC(=O)c3ncc(C(F)(F)F)cc3Cl)ccc2F)CO[C@@](C)(C(F)(F)F)C(N)=N1", "note": "[Compound 1, N-(6-((3R,6R)-5-amino-3,6-dimethyl-6-(trifluoromethyl)-3,6-dihydro-2H-1,4-oxazin-3-yl)-5-fluoropyridin-2-yl)-3-chloro-5-(trifluoromethyl)picolinamide]", "values": [{"measurement": "increase of mean AUC of Compound 1", "result": "2-3 fold"}, {"measurement": "increase of mean Cmax of Compound 1", "result": 25, "unit": "%"}]}
